Here are results for 19 compounds from ChEMBL document CHEMBL3351827, “Design, synthesis and evaluation of novel 5-phenylpyridin-2(1H)-one derivatives as potent reversible Bruton's tyrosine kinase inhibitors” (Bioorg Med Chem, 2015).

Molecules are shown by their SMILES. The source made the active and inactive calls. The rule behind the calls is not given here.

In general, IC50 refers to the concentration that gives 50% inhibition. Usually clearance stands for the volume of plasma or blood freed of the substance per unit of time. Higher therefore signals efficient removal. In general, CL/F refers to the apparent clearance, not corrected for the fraction that reaches the circulation. For orientation: AUC means concentration integrated over time. Higher therefore signals high exposure. For orientation: MRT last means the average time that molecules of a dose stay in the body. A word on the Cmax: it is the maximum level reached in the sampled fluid or tissue. By half-life is commonly meant how long it takes for the measured level to halve. High values mean slow loss, low ones fast loss. Broadly, the bioavailability is dose-corrected exposure relative to a reference, in per cent. Low readings indicate little systemic uptake, high ones much systemic uptake.

For data set [1], the target named is T1, Tyrosine-protein kinase BTK (Homo sapiens, UniProt Q06187). Put plainly: Inhibition of BTK (unknown origin) using biotin-labeled peptide substrate incubated for 1 hr by TR-FRET based HTRF kinase assay.
T1 sequence (Q06187 whole entry): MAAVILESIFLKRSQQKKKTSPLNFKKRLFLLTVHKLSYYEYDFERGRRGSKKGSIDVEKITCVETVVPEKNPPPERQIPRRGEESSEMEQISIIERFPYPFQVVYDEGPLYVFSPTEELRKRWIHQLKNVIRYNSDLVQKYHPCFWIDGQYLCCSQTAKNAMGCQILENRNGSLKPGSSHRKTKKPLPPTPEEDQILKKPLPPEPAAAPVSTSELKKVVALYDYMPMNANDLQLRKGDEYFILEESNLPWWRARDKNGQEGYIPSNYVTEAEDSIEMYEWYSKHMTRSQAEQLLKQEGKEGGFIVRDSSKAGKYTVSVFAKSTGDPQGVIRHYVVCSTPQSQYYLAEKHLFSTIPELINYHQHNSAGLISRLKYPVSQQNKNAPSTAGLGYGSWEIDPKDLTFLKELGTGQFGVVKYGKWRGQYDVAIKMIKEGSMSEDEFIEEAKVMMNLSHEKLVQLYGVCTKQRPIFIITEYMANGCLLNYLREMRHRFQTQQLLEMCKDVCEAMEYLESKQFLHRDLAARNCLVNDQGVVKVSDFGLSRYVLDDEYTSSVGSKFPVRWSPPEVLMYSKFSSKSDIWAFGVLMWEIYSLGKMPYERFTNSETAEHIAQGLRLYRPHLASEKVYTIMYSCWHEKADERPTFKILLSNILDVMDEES
The target in data set [2] is T1, Tyrosine-protein kinase BTK. Put plainly: Inhibition of BTK in human Ramos cells assessed as reduction in IgM-induced calcium influx incubated for 20 mins by Fluo-4 dye based fluorescence assay. It is filed as cell-based.
The subject of data set [3] is Rattus norvegicus. Put plainly: Toxicity in Wistar rat model of collagen-induced arthritis assessed reduction in body weight at 6 and 20 mg/kg, po dosed for 13 days starting from day 14 post collagen challenge. It is filed as organism-based. Details: dose 20 mg/kg, route oral. To be noted: in vivo, 312 h.
Data set [4] can be described thus: Clearance in Sprague-Dawley rat at 1 mg/kg, iv measured during 2 mins to 24 hrs period post dose by LC/MS/MS method. The format is ADME, organism-based. Details: dose 1 mg/kg, route intravenous. To be noted: in vivo.
Data set [5] in a line: Clearance in Sprague-Dawley rat at 2 mg/kg, po measured during 2 mins to 24 hrs period post dose by LC/MS/MS method. The format is ADME, organism-based. More on the design: dose 2 mg/kg, route oral. To be noted: in vivo.
The species entered for data set [6] is Rattus norvegicus. To be noted: Wistar, 6 mg/kg.
Description: Inhibition of collagen-induced arthritis in Wistar rat assessed as reduction in disease progression at 6 mg/kg, po dosed for 13 days starting from day 14 post collagen challenge
Data set [7] is described as follows: AUC in Sprague-Dawley rat at 1 mg/kg, iv measured during 2 mins to 24 hrs period post dose by LC/MS/MS method. To be noted: plasma. More on the design: time 0.033-24 hr, dose 1 mg/kg, route intravenous. The format is ADME, organism-based.
Data set [8] can be described thus: Mean residence time (0 to t) in Sprague-Dawley rat at 1 mg/kg, iv measured during 2 mins to 24 hrs period post dose by LC/MS/MS method. More on the design: dose 1 mg/kg, route intravenous. To be noted: in vivo. The format is ADME, organism-based.
A short description of data set [9]: Cmax in Sprague-Dawley rat at 2 mg/kg, po measured during 2 mins to 24 hrs period post dose by LC/MS/MS method. It is filed as ADME, organism-based. More on the design: dose 2 mg/kg, route oral. To be noted: in vivo.
The subject of data set [10] is Rattus norvegicus. The experiment in a line: Apparent volume of distribution in Sprague-Dawley rat at 2 mg/kg, po measured during 2 mins to 24 hrs period post dose by LC/MS/MS method. To be noted: in vivo. Details: dose 2 mg/kg, route oral. It is filed as ADME, organism-based.
Data set [11] is described as follows: Mean residence time (0 to t) in Sprague-Dawley rat at 2 mg/kg, po measured during 2 mins to 24 hrs period post dose by LC/MS/MS method. It is filed as ADME, organism-based. More on the design: dose 2 mg/kg, route oral. To be noted: in vivo.
The nature of data set [12]: Cmax in Sprague-Dawley rat at 1 mg/kg, iv measured during 2 mins to 24 hrs period post dose by LC/MS/MS method. Details: dose 1 mg/kg, route intravenous. To be noted: in vivo. The format is ADME, organism-based.
Data set [13] in a line: Half life in Sprague-Dawley rat at 1 mg/kg, iv measured during 2 mins to 24 hrs period post dose by LC/MS/MS method. More on the design: dose 1 mg/kg, route intravenous. To be noted: in vivo. The format is ADME, organism-based.
In data set [14] the test system is Rattus norvegicus. Put plainly: Inhibition of collagen-induced arthritis in Wistar rat assessed as reduction in disease progression at 20 mg/kg, po dosed for 13 days starting from day 14 post collagen challenge. The format is functional, organism-based. Details: dose 20 mg/kg.
Data set [15] can be described thus: Apparent volume of distribution in Sprague-Dawley rat at 1 mg/kg, iv measured during 2 mins to 24 hrs period post dose by LC/MS/MS method. It is filed as ADME, organism-based. More on the design: dose 1 mg/kg, route intravenous. To be noted: in vivo, read-out: Vz.
Data set [16] in a line: Oral bioavailability in Sprague-Dawley rat at 2 mg/kg measured during 2 mins to 24 hrs period post dose by LC/MS/MS method. It is filed as ADME, organism-based. To be noted: in vivo.
A short description of data set [17]: Half life in Sprague-Dawley rat at 2 mg/kg, po measured during 2 mins to 24 hrs period post dose by LC/MS/MS method. The format is ADME, organism-based. More on the design: dose 2 mg/kg, route oral. To be noted: in vivo.
Data set [18] can be described thus: AUC in Sprague-Dawley rat at 2 mg/kg, po measured during 2 mins to 24 hrs period post dose by LC/MS/MS method. To be noted: plasma. Details: time upper 24 hr, time lower 0.033 hr, dose 2 mg/kg, route oral. It is filed as ADME, organism-based.

For `CN1CCN(c2ccc(Nc3cc(-c4cccc(-n5ccc6nc(C7CC7)ccc6c5=O)c4CO)cn(C)c3=O)nc2)CC1`, the results for the IC50 in [1] and in data set [2] were 0.564 µM and 3.25 µM, respectively.

In the case of `Cc1c(-c2cc(Nc3ccc(N4CCN(C)CC4)cn3)c(=O)n(C)c2)cccc1N1C(=O)c2ccc(C(C)(C)C)cc2C1=O`, the IC50 in data set [1] was over 5 µM.

As for `Cc1c(NC(=O)c2ccc(C(C)(C)C)cc2)cccc1-c1cc(Nc2ccc(N3CCN(C)CC3)cn2)c(=O)n(C)c1`, the IC50 was 0.875 µM in data set [1] and over 5 µM in data set [2].

Consider `CN1CC(N2CCN(c3ccc(Nc4cc(-c5cccc(-n6ccc7cc(C8CC8)cc(F)c7c6=O)c5CO)cn(C)c4=O)nc3)CC2)C1`, for which the results for the IC50 in data set [1] and in [2] were 0.009 µM and 0.033 µM, respectively.

As for `CN1CCN(c2ccc(C(=O)Nc3cc(-c4cccc(-n5ccc6cc(C7CC7)cc(F)c6c5=O)c4CO)cn(C)c3=O)cc2)CC1`, the IC50 in [1] was 0.818 µM; in data set [2] it was over 5 µM.

For the compound `Cn1cc(-c2cccc(-n3ccc4cc(C5CC5)cc(F)c4c3=O)c2CO)cc(Nc2ccc(C3CCN(C4COC4)CC3)cn2)c1=O`, the IC50 in data set [1] is 0.02 µM; in data set [2] it was 0.021 µM.

For the compound `Cc1c(-c2cc(Nc3ccc(N4CCN(C)CC4)cn3)c(=O)n(C)c2)cccc1-n1ccc2cc(C3CC3)cc(F)c2c1=O`, the IC50 in data set [1] came to 0.365 µM; in data set [2], 0.254 µM.

Turning to `CN1CCN(c2ccc(Nc3cc(-c4cccc(-n5ccc6cc(N(C)C)ncc6c5=O)c4CO)cn(C)c3=O)nc2)CC1`, the results for the IC50 in data set [1] and in [2] were 0.431 µM and 1.03 µM, respectively.

In the case of `CN1CCN(c2ccc(Nc3cc(-c4cccc(-n5ccc6cc(C7CC7)ccc6c5=O)c4CO)cn(C)c3=O)nc2)CC1`, the IC50 in [1] came to 0.037 µM; in data set [2] it was 0.115 µM.

Compound `CN1CCN(c2ccc(Nc3cc(-c4cccc(-n5ccc6ccccc6c5=O)c4CO)cn(C)c3=O)nc2)CC1` gave an IC50 in data set [1] of 1.03 µM.

For the compound `Cn1cc(-c2cccc(-n3ccc4cc(C5CC5)cc(F)c4c3=O)c2CO)cc(Nc2ccc(N3CCN(C4COC4)CC3)cn2)c1=O`, the Activity entry with Rattus norvegicus [3] is reported as “Non-toxic”. For the same compound, the clearance in [4] is 0.47 L/h/kg. The compound also gave a CL/F in data set [5] of 0.81 L/h/kg. Further, the inhibition entry in the data set listed under Rattus norvegicus [6] and in the data set with Rattus norvegicus [14] was “Active” in each case. Moreover, the figures for the AUC in data set [7] and in data set [18] were 1.67 µg·h/mL and 1.95 µg·h/mL, respectively. Moreover, the MRT last was determined as 6.48 h in data set [8] and 8.78 h in data set [11]. Also, the Cmax in data set [9] came out at 0.17 µg/mL; in data set [12], 1.09 µg/mL. Besides, in the data set with Rattus norvegicus [10], the Vz came out at 13.4 L/kg. Also, the IC50 in [1] was 0.016 µM; in data set [2], 0.008 µM. Moreover, the half-life in data set [13] was 13.6 h; in [17], 11.5 h. For the same compound, the Vd in data set [15] was determined as 9.28 L/kg. In [16], this compound displayed a bioavailability of 58.4%.

As to `Cc1c(-c2cc(Nc3ccc(N4CCN(C)CC4)cn3)c(=O)n(C)c2)cccc1-c1nc2cc(C(C)(C)C)ccc2[nH]1`, in data set [1], the IC50 was over 5 µM.

In [4], `CN1CCN(c2ccc(Nc3cc(-c4cccc(-n5ccc6cc(C7CC7)cc(F)c6c5=O)c4CO)cn(C)c3=O)nc2)CC1` showed a clearance of 2.47 L/h/kg. In [5], the CL/F is 5.07 L/h/kg. Moreover, the results for the AUC in data set [7] and in data set [18] were 0.404 µg·h/mL and 0.403 µg·h/mL, respectively. For the same compound, the MRT last was 6.56 h in data set [8] and 9.31 h in data set [11]. Besides, the Cmax came out at 0.0348 µg/mL in data set [9] and 0.22 µg/mL in data set [12]. Further, the Vz in the data set on Rattus norvegicus [10] came to 86.69 L/kg. The half-life in [13] is 14.1 h; in data set [17] it was 11.5 h. Further, in the data set with Rattus norvegicus [14], the inhibition entry was “Active”. For the same compound, the Vd in data set [15] stood at 50.5 L/kg. In data set [16], this compound returned a bioavailability of 49.9%.

Compound `CN1CCN(c2ccc(CNc3cc(-c4cccc(-n5ccc6cc(C7CC7)cc(F)c6c5=O)c4CO)cn(C)c3=O)cc2)CC1` had an IC50 in data set [1] of over 5 µM.

As to `Cn1cc(-c2cccc(-n3ccc4cc(C5CC5)cc(F)c4c3=O)c2CO)cc(Nc2ccc(N3CCN(C(=O)C4CC4)CC3)cn2)c1=O`, the IC50 amounted to 0.028 µM in [1] and 4.36 µM in [2].

For the compound `CN1CCN(c2ccc(Nc3cc(-c4cccc(-n5ccc6cc(C7CC7)cc(F)c6c5=O)c4)cn(C)c3=O)nc2)CC1`, the figures for the IC50 in data set [1] and in data set [2] were 0.503 µM and 0.472 µM, respectively.

Consider `Cc1c(Nc2ncnc3ccccc23)cccc1-c1c[nH]c(=O)c(Nc2ccc(N3CCN(C)CC3)cn2)c1C`, for which the IC50 in data set [1] is over 5 µM.

`CN1CCN(c2ccc(Nc3cc(-c4cccc(-n5ccc6cc(C7CC7)ncc6c5=O)c4CO)cn(C)c3=O)nc2)CC1`: the results for the IC50 in data set [1] and in data set [2] were 0.255 µM and 0.124 µM, respectively.

Turning to `Cc1c(-c2cc(Nc3ccc(N4CCN(C5COC5)CC4)cn3)c(=O)n(C)c2)cccc1-n1ccc2cc(C3CC3)cc(F)c2c1=O`, the IC50 in [1] worked out at 0.203 µM; in data set [2], 0.171 µM.
